Experimental findings from EP4620949A1, “ACKR3 MODULATORS FOR CARDIOVASCULAR OR ANTIPLATELET THERAPY” (Eberhard Karls Universität Tübingen (Medizinische Fakultät), priority 2024, dated 2025) are described below.

Values joined by “and” are separate entries in the source; they are usually repeats but may differ in a detail not shown here. Equal entries are not always repeated.

As usually defined, the EC50 is the concentration at which the effect is half-maximal. A low value points to greater potency.

For data set [1], the system named is platelets. The data set can be described thus: Flow cytometry assay of platelet degranulation (P-Selectin surface expression in PRP). The following applies: PRP pre-incubated with compound (100 µM), then CRP-XL (1 µg/mL); % ±SEM normalized to CRP-XL-treated vehicle PRP. Type of data set: cell-based, human. As to the method:
Platelet Degranulation Studies of Derivatives. Concurrent with the β-Arrestin recruitment potency optimization, the compounds were also tested and developed according to their functional activity. To determine the ability of a compound to modulate platelets, P-Selectin surface expression was measured. P-Selectin is a surface protein involved in cell adhesion mechanisms and can be found on activated platelets. After induction of platelet aggregation in platelet-rich plasma (PRP), treatment with the respective compound should therefore lead to a significant reduction in P-Selectin expression. […]. […]. Similarly, platelet degranulation potency was highly sensitive toward "linker"-changes (Structure C, Table 1). A distinct trend could not be registered. […]. Flow Cytometry Assay. The inhibition of platelet degranulation was determined via flow cytometry experiments. Platelets were treated with collagen-related peptide (CRP-XL, CambCol Laboratories, Cambridge, UK) and the platelets' activation state was determined (Geue, S.; Aurbach, K.; Manke, M.-C.; Manukjan, G.; Münzer, P.; Stegner, D.; Brähler, C.; Walker-Allgaier, B.; Märklin, M.; Borst, C. E.; Quintanilla-Fend, L.; Rath, D.; Geisler, T.; Salih, H. R.; Seizer, P.; Lang, F.; Nieswandt, B.; Gawaz, M.; Schulze, H.; Pleines, I.; Borst, O. Pivotal role of pdk1 in megakaryocyte cytoskeletal dynamics and polarization during platelet biogenesis. Blood 2019, 134, 1847-1858; and Malehmir, M.; Pfister, D.; Gallage, S.; Szydlowska, M.; Inverso, D.; Kotsiliti, E.; Leone, V.; Peiseler, M.; Surewaard, B. G. J.; Rath, D.; Ali, A.; Wolf, M. J.; Drescher, H.; Healy, M. E.; Dauch, D.; Kroy, D.; Krenkel, O.; Kohlhepp, M.; Engleitner, T.; Olkus, A.; Sijmonsma, T.; Volz, J.; Deppermann, C.; Stegner, D.; Helbling, P.; Nombela-Arrieta, C.; Rafiei, A.; Hinterleitner, M.; Rail, M.; Baku, F.; Borst, O.; Wilson, C. L.; Leslie, J.; O'Connor, T.; Wes-ton, C. J.; Chauhan, A.; Adams, D. H.; Sheriff, L.; Teijeiro, A.; Prinz, M.; Bogeska, R.; An-stee, N.; Bongers, M. N.; Notohamiprodjo, M.; Geisler, T.; Withers, D. J.; Ware, J.; Mann, D. A.; Augustin, H. G.; Vegiopoulos, A.; Milsom, M. D.; Rose, A. J.; Lalor, P. F.; Llovet, J. M.; Pinyol, R.; Tacke, F.; Rad, R.; Matter, M.; Djouder, N.; Kubes, P.; Knolle, P. A.; Unger, K.; Zender, L.; Nieswandt, B.; Gawaz, M.; Weber, A.; Heikenwalder, M. Platelet gpibα is a mediator and potential interventional target for nash and subsequent liver cancer. Nat. Med. 2019, 25, 641-655). Briefly, PRP was isolated from peripheral human blood collected in citrate-phosphate-dextrose solution with adenine (CPDA) and diluted with phosphate-buffered saline (PBS) (Sigma Aldrich Co., Ltd., St. Luis, Missouri, USA) supplemented with CaCl2 and MgCl2. PRP (106 platelets /sample) was preincubated with the respective compound (100 µM) for 15 min. Samples were treated with 1 µg/ml CRP-XL (CambCol Laboratories, Cambridge, UK) for 30 min at room temperature in the presence of the respective fluorochrome-conjugated antibody against P-Selectin (CD62P-FITC; Beckman Coulter, Brea, CA, USA). Subsequently, samples were fixed in 0.5% paraformaldehyde and analyzed on a FACS-Calibur flow cytometer (FACS-Caliber flow cytometer, Becton-Dickinson, East Rutherford, NJ, USA). Mean fluorescence intensity (MFI) was used as a quantitative measurement of platelet surface expression.
A general note: In flow cytometry, cells or beads pass a laser one at a time.

Data set [2] is described as follows: Kinetic solubility assay. In kind it is physicochemical. The following applies: mixture 1 vol.% DMSO and 99 vol.% PBS buffer. Here is the method: Solubility Assay. A 100 mL flask with phosphate-buffered saline was prepared from NaCl, KCI, Na2HPO4, KH2PO4, and distilled water. The buffer was adjusted to pH 7.4 with HCl. Afterwards, 10mM stock solutions of compounds in DMSO were prepared. 10 µL compound stock solution was added to 990 µL PBS in Eppendorf tubes. As a reference, 10 µL compound stock solution was added to 990 µL HPLC-grade MeOH in Eppendorf tubes. All tubes were centrifuged (16000 relative centrifugal force, 4 °C, 20 min). Subsequently, 600 µL supernatant was extracted carefully and filled into HPLC vials. […] Compounds solubility was calculated by AUC of compound in PBS divided by AUC of reference solution multiplied by concentration of the compound in solution.

The target of data set [3] is T1, human ACKR3 (Homo sapiens, UniProt P25106).
T1 construct: expressed in transfected cells; host or cells: HEK293T
Description: ACKR3 β-Arrestin recruitment assay (NanoLuc complementation, NanoBiT) in HEK293T cells. In kind it is cell-based. The following applies: for Efficacy (Emax) vs CXCL12: efficacy of CXCL12 at 300 nM set as 100%, average of three independent experiments. As to the method: ACKR3 β-Arrestin Recruitment Assay. […] T.; Encell, L. P.; Wood, K. V. Nanoluc complementation reporter optimized for accurate measurement of protein interactions in cells. […] B.; Reynders, N.; Vanderplasschen, A.; Ollert, M.; Bouvier, M.; Szpakowska, M.; Chevigné, A. Proadrenomedullin n-terminal 20 peptides (pamps) are agonists of the chemokine scavenger receptor ACKR3/CXCR7. […] The prepared cells were then treated with compounds at concentrations ranging from 0.3 nM to 100 µM. Induction of β-Arrestin recruitment to receptors was evaluated by measuring bioluminescence with a Mithras LB940 luminometer (Berthold Technologies).
All curves were fitted to data points generated from the mean of at least three independent experiments. Results with values of p < 0.05 were considered statistically significant.
In general terms: Activated receptors often draw arrestin, which recruitment assays turn into a signal.

Data set [4] deals with platelets. Description: Light transmission platelet aggregation experiments. In kind it is cell-based. To be noted: preincubation with 100 µM ACKR3 agonist, activation with 2.5 µM ADP; compared to the control. Here is the method:
Platelet aggregation studies. To further evaluate the compounds inhibitory potential of platelet aggregation, aggregation experiments were conducted.
Aggregation experiments. For the light transmission aggregation experiments, citrate anticoagulated blood from healthy donors was used. To obtain platelet-rich plasma, whole blood was centrifuged at 210 × g for 20 min at room temperature. 1 × 10^8 platelets were preincubated with 100 µM ACKR3 agonist for 15 min at 37°C. Subsequently, platelets were activated with 2.5 µM ADP and aggregation was analyzed for 5 min at 1,000 rpm and 37°C using a light transmission aggregometer (Aggregometer 490-X; Chrono-Log Corp., Havertown, Pennsylvania, United States). Maximum platelet aggregation and the area under the curve were quantified using Aggrolink8 software (Chrono-Log Corp., Havertown, Pennsylvania, United States).

The mark [5] stands for this setting: ACKR3, HEK293T cells, average value of three independent experiments.

T1 sequence (P25106 whole entry): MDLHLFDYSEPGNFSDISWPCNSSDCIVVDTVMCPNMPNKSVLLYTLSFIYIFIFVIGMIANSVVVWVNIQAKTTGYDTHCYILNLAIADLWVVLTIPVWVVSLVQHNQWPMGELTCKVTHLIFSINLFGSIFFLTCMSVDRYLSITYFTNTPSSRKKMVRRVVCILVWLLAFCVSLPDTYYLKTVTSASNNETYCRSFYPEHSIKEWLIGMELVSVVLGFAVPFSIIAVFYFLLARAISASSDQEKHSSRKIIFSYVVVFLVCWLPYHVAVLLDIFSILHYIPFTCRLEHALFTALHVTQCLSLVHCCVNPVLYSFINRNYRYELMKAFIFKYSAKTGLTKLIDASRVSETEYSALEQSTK
T1 sequence (P49407 whole entry partner): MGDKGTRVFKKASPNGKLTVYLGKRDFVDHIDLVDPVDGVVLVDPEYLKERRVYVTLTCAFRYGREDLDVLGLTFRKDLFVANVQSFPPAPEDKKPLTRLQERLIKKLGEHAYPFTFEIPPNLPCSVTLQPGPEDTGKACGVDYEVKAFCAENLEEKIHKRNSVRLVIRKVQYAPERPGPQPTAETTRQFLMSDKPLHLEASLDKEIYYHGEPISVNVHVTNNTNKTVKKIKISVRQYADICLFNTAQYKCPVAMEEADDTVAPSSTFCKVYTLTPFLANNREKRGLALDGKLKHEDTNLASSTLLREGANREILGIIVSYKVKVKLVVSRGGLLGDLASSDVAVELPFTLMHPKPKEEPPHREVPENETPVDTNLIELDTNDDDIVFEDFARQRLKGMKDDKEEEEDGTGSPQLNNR

Regarding `CCCN(CCCNC(=O)c1ccc(-c2ccccc2)s1)Cc1ccccc1` [Compound 26, N-(3-(benzyl(propyl)amino)propyl)-5-phenylthiophene-2-carboxamide], the P-Selectin expression reduction in data set [1] is 76±7%. Moreover, in data set [2], the “Solubility (in words)” value is “good solubility”.
In the case of `O=C(NCCCN(CCCO)Cc1ccccc1)c1ccc(-c2ccccc2)s1` [Compound 28, N-(3-(benzyl(3-hydroxypropyl)amino)propyl)-5-phenylthiophene-2-carboxamide], the P-Selectin expression reduction in data set [1] came out at 85±4%. In addition, the concentration giving a half-maximal response (EC50) in data set [3] (setting [5]) is 413 nM.
For `O=C(NCCCN(CCc1ccccc1)Cc1ccccc1)c1ccc(-c2ccccc2)s1` [Compound 29, N-(3-(benzyl(phenethyl)amino)propyl)-5-phenylthiophene-2-carboxamide] the same measures were 2±8% and 459 nM.
Regarding `O=C(NCCCN(CCCc1ccccc1)Cc1ccccc1)c1ccc(-c2ccccc2)s1` [Compound 30, N-(3-(benzyl(3-phenylpropyl)amino)propyl)-5-phenylthiophene-2-carboxamide], the P-Selectin expression reduction in data set [1] is on record as 1±5%. The same compound came in with an EC50 in data set [3] (setting [5]) of 1060 nM. For the same compound, in data set [2], the “Solubility (in words)” value was “good solubility”.
As for `CCN(CCCNC(=O)c1ccc(-c2cccc(F)c2)s1)Cc1ccccc1` [Compound 31, N-(3-(benzyl(ethyl)amino)propyl)-5-(3-fluorophenyl)thiophene-2-carboxamide], the P-Selectin expression reduction in data set [1] was found to be 95±1%.
Same read-out and setting: next, `CCN(CCCNC(=O)c1ccc(-c2cccc(F)c2)s1)Cc1ccc(F)cc1` [Compound 32, N-(3-(ethyl(4-fluorobenzyl)amino)propyl)-5-(3-fluorophenyl)thiophene-2-carboxamide]: 96±1%.
With `CC(C)(C)OC(=O)NCCCNC(=O)c1ccc(-c2ccccc2)s1` [Compound 33, tert-butyl (3-(5-phenylthiophene-2-carboxamido)propyl)carbamate], in data set [1], the P-Selectin expression reduction is 0±4%. Moreover, the “β-Arrestin recruitment EC50” value in data set [3] (setting [5]) is given as “no activity”.
With `O=C(NCCCNCc1ccccc1)c1ccc(-c2ccccc2)s1` [Compound 34, N-(3-(benzylamino)propyl)-5-phenylthiophene-2-carboxamide], the P-Selectin expression reduction in data set [1] came out at 95±1%.
Same read-out and setting: next, `O=C(NCCCN1CCc2ccccc2C1)c1ccc(-c2ccccc2)s1` [Compound 35, N-(3-(3,4-dihydroisoquinolin-2(1H)-yl)propyl)-5-phenylthiophene-2-carboxamide]: 27±9%.
Take `O=C(NCC1CCCN(Cc2ccccc2)C1)c1ccc(-c2ccccc2)s1` (stereo not shown) [Compound 39, N-((1-benzylpiperidin-3-yl)methyl)-5-phenylthiophene-2-carboxamide]: in data set [1], the P-Selectin expression reduction worked out at 42±9%. This compound also returned an EC50 in data set [3] (setting [5]) of 1220 nM.
As to `O=C(c1ccc(-c2ccccc2)s1)N1CCCN(Cc2ccccc2)CC1` [Compound 40, (4-benzyl-1,4-diazepan-1-yl)(5-phenylthiophen-2-yl)methanone], the P-Selectin expression reduction in data set [1] was 76%. For the same compound, in data set [3] (setting [5]), the 50% effective concentration (EC50) stood at 1200 nM. Moreover, in data set [3], the “Efficacy (Emax) vs CXCL12” value is reported as 32%.
Consider `O=C(NCc1cccc([N+](=O)[O-])c1)c1ccc(-c2ccccc2)s1` [Compound 42, N-(3-nitrobenzyl)-5-phenylthiophene-2-carboxamide], for which the P-Selectin expression reduction in data set [1] is 17±3%.
For `CC(C)(C)OC(=O)N1CCCN(C(=O)c2csc(-c3ccccc3)n2)CC1` [Compound 45, tert-butyl 4-(2-phenylthiazole-4-carbonyl)-1,4-diazepane-1-carboxylate], the P-Selectin expression reduction in data set [1] was 93%. In data set [3] (setting [5]), the EC50 was found to be 5000 nM. The “Efficacy (Emax) vs CXCL12” value in data set [3] is given as 29%.
For `CC(C)(C)OC(=O)N1CCN(CCCNC(=O)c2csc(-c3ccccc3)n2)CC1` [Compound 46, tert-butyl 4-(3-(2-phenylthiazole-4-carboxamido)propyl)piperazine-1-carboxylate] the same measures were 86%, 2700 nM and 65%.
On to `CC(C)(C)OC(=O)N1CCN(CCCNCc2csc(-c3ccccc3)n2)CC1` [Compound 47, tert-butyl 4-(3-(((2-phenylthiazol-4-yl)methyl)amino)propyl)piperazine-1-carboxylate], for which, in data set [1], the P-Selectin expression reduction came out at 100%. It took 2400 nM to reach a half-maximal effect in data set [3] (setting [5]) (EC50). Besides, the “Efficacy (Emax) vs CXCL12” value in data set [3] was determined as 89%.
On the same counts, the results for `CC(C)(C)OC(=O)N1CCN(CCNC(=O)c2cc3ccccc3s2)CC1` [Compound 49, tert-butyl 4-(2-(benzo[b]thiophene-2-carboxamido)ethyl)piperazine-1-carboxylate] are 70%, 4550 nM and 25%.
In the case of `COc1cc(C(=O)N(CCC2CCCN2C)C/C(C)=C/c2ccccc2F)cc(OC)c1OC` (stereo not shown) [VUF11207, reference compound], in data set [1], the P-Selectin expression reduction is 65% and 65±6%. Moreover, the EC50 in data set [3] (setting [5]) worked out at 43.6 nM. For the same compound, the “Efficacy (Emax) vs CXCL12” value in data set [3] was determined as 95%. Moreover, in data set [4], the “platelet aggregation (in words)” value is reported as “reduction of platelet aggregation”.
